Measurements as given in patent EP3290412A1, “HIV-1 NUCLEOCAPSID INHIBITORS” (Università degli Studi di Siena, priority 2016, dated 2018).
pIC50: −log10 of the molar value. Like-named read-outs stand apart in the source and are kept apart here.

Columns and labels:
[1] = system: Peripheral blood mononuclear cells (PBMC); assay type: cell-based; settings: human, 7 days
In short: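 Healthy-donor PBMC stimulated 2 days with 5 µg/mL PHA, then seeded at 1x10^5 cells/well in medium with 20 IU/mL IL-2 and exposed to compound for 7 days. Viability measured by MTS (4 h, OD 490 nm). TD50 interpolated from dose versus percent mortality relative to untreated cells.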

[2] = target: NC(11-55) (Human immunodeficiency virus type 1, UniProt P12493); assay: NC inhibition assay (NC-induced cTAR DNA destabilization, fluorescence); assay type: biochemical, HIV-1; settings: for inhibition at 100 µM: single point screening, positive = >25% inhibition at 100µM
In short: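 Doubly labelled cTAR (0.1 µM, Alexa488/Dabcyl) pre-complexed with 1 µM Zn-loaded NC(11-55) for 15 min, then compound added for a further 15 min; run at 20 °C in Tris-HCl pH 7.5, 30 mM NaCl, 0.2 mM MgCl2. Fluorescence read at ex 480/em 520 nm. IC50 taken from dose-response fit of % inhibition of NC-induced fluorescence increase.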

COc1ccc(-c2nc(O)c(O)c(C(=O)N[C@H](C)C3CCCCC3)n2)nc1 [Compound 32, (R)-N-(1-cyclohexylethyl)-5,6-dihydroxy-2-(5-methoxypyridin-2-yl)pyrimidine-4-carboxamide]
Proliferation assay PBMC TD50 [1]: 3000 nM | pIC50 [2]: 4.35 | inhibition at 100 µM [2]: > 25%

C[C@@H](NC(=O)c1nc(-c2ncccc2Cl)nc(O)c1O)C1CCCCC1 [Compound 33, (R)-2-(3-chloropyridin-2-yl)-N-(1-cyclohexylethyl)-5,6-dihydroxypyrimidine-4-carboxamide]
Proliferation assay PBMC TD50 [1]: 3400 nM | pIC50 [2]: 4.74 | inhibition at 100 µM [2]: > 25%

C[C@@H](NC(=O)c1nc(-c2cccc(Cl)n2)nc(O)c1O)C1CCCCC1 [Compound 34, (R)-2-(6-chloropyridin-2-yl)-N-(1-cyclohexylethyl)-5,6-dihydroxypyrimidine-4-carboxamide]
Proliferation assay PBMC TD50 [1]: 5880 nM | pIC50 [2]: 4.32 | inhibition at 100 µM [2]: > 25%

C[C@@H](NC(=O)c1nc(-c2cc(OCc3ccccc3)ccn2)nc(O)c1O)C1CCCCC1 [Compound 35, (R)-2-(4-(benzyloxy)pyridin-2-yl)-N-(1-cyclohexylethyl)-5,6-dihydroxypyrimidine-4-carboxamide]
Proliferation assay PBMC TD50 [1]: 670 nM | inhibition at 100 µM [2]: > 25%

C[C@@H](NC(=O)c1nc(-c2ccc(C(F)(F)F)cn2)nc(O)c1O)C1CCCCC1 [Compound 36, (R)-N-(1-cyclohexylethyl)-5,6-dihydroxy-2-(5-(trifluoromethyl)pyridin-2-yl)pyrimidine-4-carboxamide]
Proliferation assay PBMC TD50 [1]: 465 nM | pIC50 [2]: 4.65 | inhibition at 100 µM [2]: > 25%

COc1cccc(-c2nc(O)c(O)c(C(=O)N[C@H](C)C3CCCCC3)n2)n1 [Compound 37, (R)-N-(1-cyclohexylethyl)-5,6-dihydroxy-2-(6-methoxypyridin-2-yl)pyrimidine-4-carboxamide]
Proliferation assay PBMC TD50 [1]: 1500 nM | pIC50 [2]: 4.54 | inhibition at 100 µM [2]: > 25%

C[C@H](NC(=O)c1nc(-c2ccccn2)nc(O)c1O)C1CCCCC1 [Compound 38, (S)-N-(1-cyclohexylethyl)-5,6-dihydroxy-2-(pyridin-2-yl)pyrimidine-4-carboxamide]
Proliferation assay PBMC TD50 [1]: 2450 nM | pIC50 [2]: 4.33 | inhibition at 100 µM [2]: > 25%

Cc1cccnc1-c1nc(O)c(O)c(C(=O)N[C@@H](C)C2CCCCC2)n1 [Compound 39, (S)-N-(1-cyclohexylethyl)-5,6-dihydroxy-2-(3-methylpyridin-2-yl)pyrimidine-4-carboxamide]
Proliferation assay PBMC TD50 [1]: 2300 nM | pIC50 [2]: 4.57 | inhibition at 100 µM [2]: > 25%

Cc1ccc(-c2nc(O)c(O)c(C(=O)N[C@H](C)C3CCCCC3)n2)nc1 [Compound 41, (R)-N-(1-cyclohexylethyl)-5,6-dihydroxy-2-(5-methylpyridin-2-yl)pyrimidine-4-carboxamide]
Proliferation assay PBMC TD50 [1]: 2800 nM | inhibition at 100 µM [2]: > 25%

O=C(NCCC1CCCC1)c1nc(-c2ccccn2)nc(O)c1O [Compound 43, N-(2-cyclopentylethyl)-5,6-dihydroxy-2-(pyridin-2-yl)pyrimidine-4-carboxamide]
Proliferation assay PBMC TD50 [1]: 8090 nM | inhibition at 100 µM [2]: > 25%

C[C@@H](NC(=O)c1nc(-c2cccc(C(F)(F)F)n2)nc(O)c1O)C1CCCCC1 [Compound 44, (R)-N-(1-cyclohexylethyl)-5,6-dihydroxy-2-(6-(trifluoromethyl)pyridin-2-yl)pyrimidine-4-carboxamide]
Proliferation assay PBMC TD50 [1]: 21550 nM | inhibition at 100 µM [2]: > 25%

C[C@@H](NC(=O)c1nc(-c2cccc(N)n2)nc(O)c1O)C1CCCCC1 [Compound 45, (R)-2-(6-aminopyridin-2-yl)-N-(1-cyclohexylethyl)-5,6-dihydroxypyrimidine-4-carboxamide]
Proliferation assay PBMC TD50 [1]: 3360 nM | pIC50 [2]: 4.52 | inhibition at 100 µM [2]: > 25%

C[C@@H](NC(=O)c1nc(-c2cc(C(=O)OCc3ccccc3)ccn2)nc(O)c1O)C1CCCCC1 [Compound 46, benzyl (R)-2-(4-((1-cyclohexylethyl)carbamoyl)-5,6-dihydroxypyrimidin-2-yl)isonicotinate]
Proliferation assay PBMC TD50 [1]: 1000 nM | pIC50 [2]: 5.00 | inhibition at 100 µM [2]: > 25%

O=C(NCC1CCC1)c1nc(-c2cc3ccccc3cn2)nc(O)c1O [Compound 47, N-(cyclobutylmethyl)-5,6-dihydroxy-2-(isoquinolin-3-yl)pyrimidine-4-carboxamide]
Proliferation assay PBMC TD50 [1]: 4900 nM | pIC50 [2]: 5.19 | inhibition at 100 µM [2]: > 25%

C[C@@H](NC(=O)c1nc(-c2cc(N)ccn2)nc(O)c1O)C1CCCCC1 [Compound 48, (R)-2-(4-aminopyridin-2-yl)-N-(1-cyclohexylethyl)-5,6-dihydroxypyrimidine-4-carboxamide]
Proliferation assay PBMC TD50 [1]: 2600 nM | pIC50 [2]: 5.40 | inhibition at 100 µM [2]: > 25%

C[C@@H](NC(=O)c1nc(-c2ccc(Cl)cn2)nc(O)c1O)C1CCCCC1 [Compound 49, (R)-2-(5-chloropyridin-2-yl)-N-(1-cyclohexylethyl)-5,6-dihydroxypyrimidine-4-carboxamide]
Proliferation assay PBMC TD50 [1]: 3400 nM | pIC50 [2]: 5.05 | inhibition at 100 µM [2]: > 25%

C[C@@H](NC(=O)c1nc(-c2ccc(C(=O)NCc3ccccc3)cn2)nc(O)c1O)C1CCCCC1 [Compound 50, (R)-2-(5-(benzylcarbamoyl)pyridin-2-yl)-N(1-cyclohexylethyl)-5,6-dihydroxypyrimidine-4-carboxamide]
Proliferation assay PBMC TD50 [1]: 2200 nM | pIC50 [2]: 5.30 | inhibition at 100 µM [2]: > 25%

C[C@@H](NC(=O)c1nc(-c2ccc(C(N)=O)cn2)nc(O)c1O)C1CCCCC1 [Compound 51, (R)-2-(5-carbamoylpyridin-2-yl)-N-(1-cyclohexylethyl)-5,6-dihydroxypyrimidine-4-carboxamide]
Proliferation assay PBMC TD50 [1]: 8000 nM | pIC50 [2]: 5.00 | inhibition at 100 µM [2]: > 25%

C[C@H](NC(=O)c1nc(-c2cc(C(F)(F)F)ccn2)nc(O)c1O)C1CCCCC1 [Compound 52, (S)-N-(1-cyclohexylethyl)-5,6-dihydroxy-2-(4-(trifluoromethyl)pyridin-2-yl)pyrimidine-4-carboxamide]
Proliferation assay PBMC TD50 [1]: 1200 nM | pIC50 [2]: 4.58 | inhibition at 100 µM [2]: > 25%

C[C@@H](NC(=O)c1nc(-c2ccc(CNCc3ccccc3)cn2)nc(O)c1O)C1CCCCC1 [Compound 53, (R)-2-(5-((benzylamino)methyl)pyridin-2-yl)-N-(1-cyclohexylethyl)-5,6-dihydroxypyrimidine-4-carboxamide]
Proliferation assay PBMC TD50 [1]: 790 nM | pIC50 [2]: 5.12 | inhibition at 100 µM [2]: > 25%

C[C@@H](NC(=O)c1nc(-c2cccc(C(=O)OCc3ccccc3)n2)nc(O)c1O)C1CCCCC1 [Compound 54, benzyl (R)-6-(4-((1-cyclohexylethyl)carbamoyl)-5,6-dihydroxypyrimidin-2-yl)picolinate]
Proliferation assay PBMC TD50 [1]: 25000 nM | inhibition at 100 µM [2]: > 25%

CC1CCC(NC(=O)c2nc(-c3ccccn3)nc(O)c2O)CC1 (stereo not shown) [Compound 56, 5,6-dihydroxy-N-(4-methylcyclohexyl)-2-(pyridin-2-yl)pyrimidine-4-carboxamide]
Proliferation assay PBMC TD50 [1]: 4600 nM | pIC50 [2]: 4.46 | inhibition at 100 µM [2]: > 25%

CC1CCCC(NC(=O)c2nc(-c3ccccn3)nc(O)c2O)C1 (stereo not shown) [Compound 57, 5,6-dihydroxy-N-(3-methylcyclohexyl)-2-(pyridin-2-yl)pyrimidine-4-carboxamide]
Proliferation assay PBMC TD50 [1]: 2700 nM | pIC50 [2]: 4.45 | inhibition at 100 µM [2]: > 25%

CC1(C)CCC(NC(=O)c2nc(-c3ccccn3)nc(O)c2O)CC1 [Compound 58, N-(4,4-dimethylcyclohexyl)-5,6-dihydroxy-2-(pyridin-2-yl)pyrimidine-4-carboxamide]
Proliferation assay PBMC TD50 [1]: 1600 nM | pIC50 [2]: 4.64 | inhibition at 100 µM [2]: > 25%

CC1CCCCC1NC(=O)c1nc(-c2ccccn2)nc(O)c1O (stereo not shown) [Compound 59, 5,6-dihydroxy-N-(2-methylcyclohexyl)-2-(pyridin-2-yl)pyrimidine-4-carboxamide]
Proliferation assay PBMC TD50 [1]: 2180 nM | pIC50 [2]: 4.30 | inhibition at 100 µM [2]: > 25%

CCNCc1ccc(-c2nc(O)c(O)c(C(=O)N[C@H](C)C3CCCCC3)n2)nc1 [Compound 60, (R)-N-(1-cyclohexylethyl)-2-(5-((ethylamino)methyl)pyridin-2-yl)-5,6-dihydroxypyrimidine-4-carboxamide]
Proliferation assay PBMC TD50 [1]: 1600 nM | pIC50 [2]: 5.46 | inhibition at 100 µM [2]: > 25%

C[C@@H](NC(=O)c1nc(-c2ccc(NC(=O)OC(C)(C)C)cn2)nc(O)c1O)C1CCCCC1 [Compound 61, tert-butyl (R)-(6-(4-((1-cyclohexylethyl)carbamoyl)-5,6-dihydroxypyrimidin-2-yl)pyridin-3-yl)carbamate]
Proliferation assay PBMC TD50 [1]: 2400 nM | pIC50 ([2]; cTAR DNA 0.1 µM, 1 µM NC(11-55), 20 °C, pH 7.5, read-out: NC inhibition IC50): 4.77 | inhibition at 100 µM [2]: > 25%

CC(=O)Nc1ccc(-c2nc(O)c(O)c(C(=O)N[C@H](C)C3CCCCC3)n2)nc1 [Compound 62, (R)-2-(5-acetamidopyridin-2-yl)-N-(1-cyclohexylethyl)-5,6-dihydroxypyrimidine-4-carboxamide]
Proliferation assay PBMC TD50 [1]: 1870 nM | pIC50 [2]: 4.81 | inhibition at 100 µM [2]: > 25%

CC(C)(CNC(=O)c1nc(-c2ccccn2)nc(O)c1O)C1CCCC1 [Compound 63, N-(2-cyclopentyl-2-methylpropyl)-5,6-dihydroxy-2-(pyridin-2-yl)pyrimidine-4-carboxamide]
Proliferation assay PBMC TD50 [1]: 2100 nM | pIC50 [2]: 5.15 | inhibition at 100 µM [2]: > 25%
